Test results: patent US9132176B2, “RAB6KIFL/KIF20A epitope peptide and vaccines containing the same” (ONCOTHERAPY SCIENCE, INC., priority 2008, dated 2015)
Where a SMILES comes first, the peptide text is derived from it.

Columns and labels:
[1] = test system: T2 cells; assay: Induction of human CTLs from PBMCs, 51Cr release assay against peptide-pulsed T2 cells; assay type: cell-based; conditions: CTLs from PBMCs of two HLA-A2-positive healthy donors, three stimulations with peptide-pulsed DCs
Text: (§1) Human RAB6KIFL-derived peptides (purity>95%), carrying binding motifs for HLA-A2 (A*0201)-encoded molecules, were selected using the BIMAS software program (BioInformatics and Molecular Analysis Section, Center for Information Technology, NIH, Bethesda, Md.) and 36 peptides were synthesized (American Peptide Company, CA, USA) (Tables 1A and B). Monocyte-derived DCs were used as antigen-presenting cells to induce CTL responses against peptides presented in the context of HLA. DCs were generated in vitro culture as described previously (Yoshitake Y, et al. Clin Cancer Res 2004; 10:6437-48, Harao M, et al. Int J Cancer 2008; in press, Imai K, et al. Clin Cancer Res 2008; in press). Briefly, PBMCs isolated from a normal volunteer positive for HLA-A2 using Ficoll-Plaque (GE Healthcare UK, Ltd., Buckinghamshire, UK) solution were sorted to CD8^+ population and CD14^+ population with microbeads (Miltenyi Biotec, Bergisch Gladbach, Germany). To generate DCs, the CD14^+ population was cultured in the presence of 100 ng/mL granulocyte-macrophage colony-stimulating factor (GM-CSF; PeproTec Inc., NJ, USA) and 10 ng/mL interleukin (IL)-4 (PeproTec) in AIM-V (Invitrogen) containing 2% heat-inactivated autologous plasma. After 5 days of culture, OK-432 was added into the dish to make the DCs mature. […]
(§2) The CTLs were cocultured with each of the cancer cells, or the peptide-pulsed T2 cells, as a target cell (5×10^3/well) at the indicated effector/target ratio and a standard ^51Cr release assay was done as described previously (Yoshitake Y, et al. Clin Cancer Res 2004; 10:6437-48. Imai K, et al. Clin Cancer Res 2008; in press). […] After 6 h incubation, 50 micro L of the supernatant was collected from each well and the radioactivity was quantified using a gamma counter. The specific cytotoxicity was evaluated by calculating the percentage of specific ^51Cr release. […]

[2] = test system: PANC1; assay: 51Cr release assay of peptide-induced CTLs against PANC1; assay type: cell-based, human; conditions: PANC1 (RAB6KIFL+, HLA-A2+); healthy donors
Text: as §1, §2

[3] = test system: CaCo-2; assay: 51Cr release assay of peptide-induced CTLs against CaCo-2; assay type: cell-based, human; conditions: CaCo-2 (RAB6KIFL+, HLA-A2+); healthy donors
Text: as §1, §2

[4] = test system: SKHep1/RAB6KIFL; assay: 51Cr release assay of peptide-induced CTLs against SKHep1/RAB6KIFL; assay type: cell-based, human; conditions: SKHep1 transfected with RAB6KIFL gene (RAB6KIFL high, HLA-A2+)
Method: (§3) A lentiviral vector-mediated gene transfer was performed as described previously (Imai K, et al. Clin Cancer Res 2008; 14:6487-95, Tahara-Hanaoka S, et al. Exp Hematol 2002; 30:11-7). Briefly, 17 micro-g of CSII-CMV-RfA and CSIIEF-RfA self-inactivating vectors (Miyoshi H, et al. J Virol 1998; 72: 8150-7) carrying RAB6KIFL cDNAs and 10 micro-g of pCMV-VSV-G-RSV-Rev and pCAG-HIVgp were transfected into the 293T cells grown in a 10-cm culture dish using Lipofectamine 2000 reagent (Invitrogen Corporation, Carlsbad, Calif., USA). After 60 hr of transfection, the medium was recovered and the viral particles were pelleted by ultra-centrifugation (50,000×g, 2 hr). The pellet was suspended in 50 micro-L of RPMI 1640 medium and 10 micro-L of viral suspension was added to 5×10^4 SKHep1 cells, per well in a flat-bottom 96-well plate. The expression of the transfected RAB6KIFL gene was confirmed by a Western blot analysis.
as §1, with “Germany).” for “Germany). To generate DCs, the CD14^+ population was cultured in the presence of 100 ng/mL granulocyte-macrophage colony-stimulating factor (GM-CSF; PeproTec Inc., NJ, USA) and 10 ng/mL interleukin (IL)-4 (PeproTec) in AIM-V (Invitrogen) containing 2% heat-inactivated autologous plasma. After 5 days of culture, OK-432 was added into the dish to make the DCs mature.”

[5] = test system: SKHep1/Mock; assay: 51Cr release assay of peptide-induced CTLs against SKHep1/Mock; assay type: cell-based, human; conditions: mock-transfected SKHep1
Method: as §3
as §1, with “Germany).” for “Germany). To generate DCs, the CD14^+ population was cultured in the presence of 100 ng/mL granulocyte-macrophage colony-stimulating factor (GM-CSF; PeproTec Inc., NJ, USA) and 10 ng/mL interleukin (IL)-4 (PeproTec) in AIM-V (Invitrogen) containing 2% heat-inactivated autologous plasma. After 5 days of culture, OK-432 was added into the dish to make the DCs mature.”

[6] = test system: HLA-A2 (HHD) Tgm; assay: Autoimmune phenomenon after peptide vaccination: immunohistochemistry with anti-CD4/anti-CD8 mAb and observation; assay type: in vivo, mouse
Method: Western blotting and immunohistochemical staining of RAB6KIFL protein were performed as described previously (Nakatsura T, et al. Biochem Biophys Res Commun 2001; 281:936-44. Yoshitake Y, et al. Clin Cancer Res 2004; 10:6437-48). For Western blotting analyses of human normal tissues, a pre-made human adult normal tissue blot (Biochain, Hayward, Calif.) was used. The primary antibodies used herein, anti-RAB6KIFL polyclonal antibody, and monoclonal anti-b-actin antibody, were purchased from Bethyl Laboratories, Inc. (Montgomery, Tex., USA) and Sigma (Steinheim, Germany), respectively. Immunohistochemical staining of CD4 or CD8 in tissue specimens of HLA-A2.1 (HHD) Tgm immunized with the RAB6KIFL-A2-10-284 peptide was done as described previously (Matsuyoshi H, et al. 2004; 172:776-86).
It is very important to investigate whether the immunization with RAB6KIFL peptide induce an autoimmune reaction or not. We thus performed the immunohistochemical analysis of several vital organs with anti-CD4 and anti-CD8 mAb in HLA-A2 (HHD) Tgm after two-times vaccination with RAB6KIFL-A2-9-809 peptide, of which amino-acid sequences were completely conserved between human and mouse RAB6KIFL. […] The abnormalities frequently observed in mice affected with autoimmune diseases such as abnormal hair and skin, diarrhea and weight loss were also not observed in these mice.

[7] = test system: cancer cells expressing both RAB6KIFL and HLA-A2; assay: Comparison of the cytotoxicity of CTLs induced by the three peptides; assay type: cell-based, human; conditions: vs RAB6KIFL-A2-9-12 and RAB6KIFL-A2-10-284
Method: The CTLs were cocultured with each of the cancer cells, or the peptide-pulsed T2 cells, as a target cell (5×10^3/well) at the indicated effector/target ratio and a standard ^51Cr release assay was done as described previously (Yoshitake Y, et al. Clin Cancer Res 2004; 10:6437-48. Imai K, et al. Clin Cancer Res 2008; in press). Briefly, target cells were labeled with 3.7 KBq […] (Perkin Elmer Life Sciences) for 1 h at 37 degree C. in a CO2 incubator. Labeled target cells were rinsed three times, and peptide-pulsed target cells were prepared by incubating the cells with 20 micro g/mL peptide for 3 h at 37 degrees C. Target cells were mixed with effector cells in final volume of 200 micro L in flat-bottomed microtiter plates and incubated. After 6 h incubation, 50 micro L of the supernatant was collected from each well and the radioactivity was quantified using a gamma counter. The specific cytotoxicity was evaluated by calculating the percentage of specific ^51Cr release.
The potential of RAB6KIFL as an immunotherapeutic target was verified herein by identifying the HLA-A2-restricted epitope peptides and evaluating their immunogenicity. […]

Row | Structure (SMILES) | cytotoxic activity of induced CTLs to T2 cells pulsed with the peptide [1] | cytotoxicity of peptide-stimulated CTLs to PANC1 [2] | cytotoxicity of peptide-stimulated CTLs to CaCo-2 [3] | cytotoxicity of peptide-induced CTLs against SKHep1/RAB6KIFL [4] | cytotoxicity of peptide-induced CTLs against SKHep1/Mock [5] | pathologic change (lymphocyte infiltration or tissue destruction suggesting autoimmunity) in vital organs ([6]; after two-times vaccination, anti-CD4 and anti-CD8 staining) | abnormalities of autoimmune disease (abnormal hair and skin, diarrhea, weight loss) ([6]; mouse, in vivo) | cytotoxicity of peptide-induced CTLs compared with CTLs induced by the other two peptides [7]
1 | CC(C)C[C@H](NC(=O)[C@@H]1CCCN1C(=O)[C@H](C)NC(=O)[C@@H](NC(=O)[C@H](CC(=O)O)NC(=O)[C@@H]1CCCN1C(=O)[C@H](CCC(N)=O)NC(=O)[C@H](C)N)[C@@H](C)O)C(=O)N1CCC[C@H]1C(=O)N[C@H](C(=O)O)C(C)C [RAB6KIFL-A2-10-284, AQPDTAPLPV] (H-AQPDTAPLPV-OH; N-terminus and C-terminus assumed) | exhibited cytotoxic activity | exhibited cytotoxicity | exhibited cytotoxicity | exhibited cytotoxicity | but not against SKHep1/Mock |  |  | 
2 | CC[C@H](C)[C@H](NC(=O)[C@@H](N)CS)C(=O)N[C@@H](C)C(=O)N[C@@H](CCC(=O)O)C(=O)N[C@@H](CCC(N)=O)C(=O)N[C@@H](Cc1ccc(O)cc1)C(=O)N[C@@H](Cc1c[nH]cn1)C(=O)N[C@H](C(=O)N[C@H](C(=O)O)C(C)C)[C@@H](C)O [RAB6KIFL-A2-9-809, CIAEQYHTV] (H-CIAEQYHTV-OH; N-terminus and C-terminus assumed) | exhibited cytotoxic activity | exhibited cytotoxicity | exhibited cytotoxicity | exhibited cytotoxicity | but not against SKHep1/Mock | no pathologic change | not observed | stronger cytotoxicity
3 | CC(C)C[C@H](NC(=O)[C@@H](N)CC(C)C)C(=O)N[C@@H](CO)C(=O)N[C@@H](CC(=O)O)C(=O)N[C@@H](CC(=O)O)C(=O)N[C@@H](CC(=O)O)C(=O)N[C@H](C(=O)N[C@H](C(=O)N[C@H](C(=O)O)C(C)C)C(C)C)C(C)C [RAB6KIFL-A2-9-12, LLSDDDVVV] (H-LLSDDDVVV-OH; N-terminus and C-terminus assumed) | exhibited cytotoxic activity | exhibited cytotoxicity | exhibited cytotoxicity | exhibited cytotoxicity | but not against SKHep1/Mock |  |  | 
